Assay [1] concerns multiple myeloma cell lines. The settings on record: in vitro; cited from earlier work.
Assay [2] has as its system acute myeloid leukemia cell line MOLM-13. As to the kind of experiment: MOLM-13 cell survival, CellTiter-Glo, two drug combination testing (CalcuSyn). It counts as cell-based. The settings on record: MOLM-13, 72 h, combination ratio 1:0.00264302. As for the experimental part: (§1) The acute myeloid leukemia cell line MOLM-13 (obtained from the ATCC) was cultured in media supplemented with 10% FBS at a temperature of 37° C., 5% CO2 and 95% humidity. Culture media was purchased from GIBCO, USA. The cells were plated out in 96-Well Flat Clear Bottom Black Polystyrene […] Microplates (Cat#3603, Corning®).
(§2) Equipment used was the EnVision Multi Label Reader, PerkinElmer (USA). CO2 Water Jacketed Incubator, Therma (USA). Reverse microscope, Chongguang XDS-1B, Chongqing Guangdian Corp. (Chongqing, P.R.China).
(§3) The cells were harvested respectively during the logarithmic growth period and counted with a hemocytometer. The cell viability is over 98% by trypan blue exclusion.
(§4) For two drug combination testing, the cell concentrations were adjusted to 5.00×10^4/ml with the medium supplemented with 10% FBS. 80 μl cell suspensions were added to 96-well plates, such that the final cell densities were 4×10^3 cells/well. The appropriate cell density was determined and adjusted according to the results of our first test.
The next day, 10 μl (10×) of each drug solution was prepared and dispense in each well simultaneously (triplicate for each concentration). After 72 h incubation, 100 μl CellTiter-Glo® Reagent was added to each well. The contents were mixed for 2 minutes on an orbital shaker to induce cell lysis. The plate was allowed to incubate at room temperature for 10 minutes to stabilize luminescent signal. Then the luminescence was recorded using EnVision Multi Label Reader.
(§5) In order to calculate IC50, a dose-responsive curve was fitted using nonlinear regression model with a sigmoidal dose response. The formula of surviving rate is shown below, and the IC50 was automatically produced by GraphPad Prism 5.0. The surviving rate (%)=(LumTest article−LUMMedium control)/(LumNone treated−LUMMedium control)×100%.
Compound interactions were calculated by multiple drug effect analysis and performed by the median equation principle with CalcuSyn software from the mean affected fraction at each drug ratio concentration of each drug according to the methodology described by Chou and Talalay, that calculates a combination index (CI) with the following interpretation: • CI>1: antagonist effect, CI=1: additive effect and CI<1 synergistic effect.
(§6) The CI was calculated from the mean affected fraction at each drug ratio concentration of each drug.

Assay [3] deals with acute myeloid leukemia cell line MV-4-11. As to the kind of experiment: MV-4-11 cell survival, CellTiter-Glo, two drug combination testing (CalcuSyn). The class given is cell-based. The settings on record: MV-4-11, 72 h, combination ratio 1:0.00120494. The protocol:
The acute myeloid leukemia cell line MV-4-11 (obtained from the ATCC) was cultured in media supplemented with 10% fetal bovine serum (FBS) at a temperature of 37° C., 5% CO2 and 95% humidity. Culture media was purchased from GIBCO, USA. The cells were plated out in 96-Well Flat Clear Bottom Black Polystyrene TC-Treated Microplates (Cat#3603, Corning®).
as §2, §3, §4
The next day, 10 μl (10×) of each drug solution was prepared and dispense in each well simultaneously (triplicate for each concentration). After 72 h incubation, 100 μL […]-GLO® Reagent was added to each well. The contents were mixed for 2 minutes on an orbital shaker to induce cell lysis. The plate was allowed to incubate at room temperature for 10 minutes to stabilize luminescent signal. Then the luminescence was recorded using EnVision Multi Label Reader.
In order to calculate IC50, a dose-responsive curve was fitted using nonlinear regression model with a sigmoidal dose response. The formula of surviving rate is shown below, and the IC50 was automatically produced by GraphPad Prism 5.0. The surviving rate (%)=(LumTest article−LUMMedium control)/(LUMNone treated−LUMMedium control)×100%.
Compound interactions were calculated by multiple drug effect analysis and performed by the median equation principle with CalcuSyn software from the mean affected fraction at each drug ratio concentration of each drug according to the methodology described by Chou and Talalay (Chou et al., Adv. Enzyme Regul., 22, 27-55 (1984)), that calculates a combination index (CI) with the following interpretation: • CI>1: antagonist effect, CI=1: additive effect and CI<1 synergistic effect.
as §6

Assay [4] deals with acute myeloid leukemia cell line MOLM-13. As to the kind of experiment: MOLM-13 cell survival, CellTiter-Glo, single drug testing. It counts as cell-based. The settings on record: Homo sapiens, MOLM-13, 72 h. As for the experimental part:
as §1, §2
(§7) The cells were harvested respectively during the logarithmic growth period and counted with a hemocytometer.
(§8) For single drug testing, the cell concentrations were adjusted to 4.44×10^4 cells/ml with the medium supplemented with 10% FBS. 90 μl cell suspensions were added to 96-well plates, such that the final cell density was 4×10^3 cells/well. The appropriate cell density was determined and adjusted according to the results of our first test.
The next day, 10 μl (10×) of drug solution was prepared and dispensed in each well (triplicate for each drug concentration). After 72 h incubation, 100 μl CellTiter-Glow Reagent was added to each well. The contents were mixed for 2 minutes on an orbital shaker to induce cell lysis. The plate was allowed to incubate at room temperature for 10 minutes to stabilize the luminescent signal. Finally, the luminescence was recorded using an EnVision Multi Label Reader.
as §5

Assay [5] has as its system acute myeloid leukemia cell line MV-4-11. As to the kind of experiment: MV-4-11 cell survival, CellTiter-Glo, single drug testing. It counts as cell-based. The settings on record: Homo sapiens, MV4-11, 72 h. The protocol: Culture media was purchased from GIBCO, USA.
as §2, §7, §8
The next day, 10 μl (10×) of drug solution was prepared and dispensed in each well (triplicate for each drug concentration). […] The contents were mixed for 2 minutes on an orbital shaker to induce cell lysis. The plate was allowed to incubate at room temperature for 10 minutes to stabilize the luminescent signal. Finally, the luminescence was recorded using an EnVision Multi Label Reader.
In order to calculate IC50, a dose-responsive curve was fitted using nonlinear regression model with a sigmoidal dose response. The formula of surviving rate is shown below, and the IC50 was automatically produced by GraphPad Prism 5.0.

Structures are written as SMILES. Read-outs that look alike come from different tables or passages of the source.

Regarding `Cn1c(CCCCCCC(=O)NO)nc2cc(N(CCCl)CCCl)ccc21` [EDO-S101], the “activity relative to bendamustin (times greater)” value in assay [1] is listed as 35-100. For the same compound, the “DRI values at ED75” value in assay [2] was 5.925; in assay [3] it was 1.368. In addition, the “DRI values at ED90” value in assay [2] is recorded as 8.534; in assay [3] it was 1.482. The IC50 in assay [4] (FIG. 3 single drug test using different doses (at 1:2 serial dilutions)) was found to be 1720 nM; in assay [4] (FIG. 3 single drug test with cisplatin control), 708 nM; in assay [5], 668 nM.
`CC(C)(C)c1cc(NC(=O)Nc2ccc(-c3cn4c(n3)sc3cc(OCCN5CCOCC5)ccc34)cc2)no1` [quizartinib, reference compound]: the “DRI values at ED75” value is on record as 3.215 in assay [2] and 6.146 in assay [3]. For the same compound, the results for the “DRI values at ED90” value in assay [2] and in assay [3] were 6.645 and 10.760, respectively. Also, the IC50 in assay [4] (FIG. 3 single drug test using different doses (at 1:2 serial dilutions), read-out: IC50) came to 4.55 nM; in assay [4] (FIG. 3 single drug test with cisplatin control, read-out: IC50) it was 2.11 nM; in assay [5] (read-out: IC50), 0.804 nM.

The values are drawn from US9993482B2, “Pharmaceutical combination comprising a class III receptor tyrosine kinase inhibitor and the alkylating histone-deacetylase inhibitor fusion molecule EDO-S101 together with its use in the treatment of cancer” (priority 2014, dated 2018).
